Counter-ions that a name gives are not always drawn.
Biological target: T1, proton pump (H+/K+-ATPase) (Sus scrofa, UniProt P19156)
T1 construct: Gastric vesicles were prepared from hog stomach via centrifugal separation; from tissue; host or cells: hog stomach (gastric vesicles, method of Rabon et al. 1988)
Assay: Measurement of inhibitory effects on proton pump (H+/K+-ATPase) activities
Type: biochemical
Details: hog gastric vesicles, K+-specific H+/K+-ATPase activity, Tris-HCl buffer pH 7.4, 37° C. for 40 minutes, malachite green Pi readout
Procedure, shortened: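 Hog gastric vesicles in 60 mmol/l Tris-HCl pH 7.4 with 0.5% DMSO were treated with compounds at room temperature; reaction was started with 10 μl of 10 mmol/l ATP stock. Released Pi was read at 570 nm, K+-specific activity taken as the ±K+ difference. IC50 from 4-parameter logistic fit.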

T1 sequence (P19156 whole entry): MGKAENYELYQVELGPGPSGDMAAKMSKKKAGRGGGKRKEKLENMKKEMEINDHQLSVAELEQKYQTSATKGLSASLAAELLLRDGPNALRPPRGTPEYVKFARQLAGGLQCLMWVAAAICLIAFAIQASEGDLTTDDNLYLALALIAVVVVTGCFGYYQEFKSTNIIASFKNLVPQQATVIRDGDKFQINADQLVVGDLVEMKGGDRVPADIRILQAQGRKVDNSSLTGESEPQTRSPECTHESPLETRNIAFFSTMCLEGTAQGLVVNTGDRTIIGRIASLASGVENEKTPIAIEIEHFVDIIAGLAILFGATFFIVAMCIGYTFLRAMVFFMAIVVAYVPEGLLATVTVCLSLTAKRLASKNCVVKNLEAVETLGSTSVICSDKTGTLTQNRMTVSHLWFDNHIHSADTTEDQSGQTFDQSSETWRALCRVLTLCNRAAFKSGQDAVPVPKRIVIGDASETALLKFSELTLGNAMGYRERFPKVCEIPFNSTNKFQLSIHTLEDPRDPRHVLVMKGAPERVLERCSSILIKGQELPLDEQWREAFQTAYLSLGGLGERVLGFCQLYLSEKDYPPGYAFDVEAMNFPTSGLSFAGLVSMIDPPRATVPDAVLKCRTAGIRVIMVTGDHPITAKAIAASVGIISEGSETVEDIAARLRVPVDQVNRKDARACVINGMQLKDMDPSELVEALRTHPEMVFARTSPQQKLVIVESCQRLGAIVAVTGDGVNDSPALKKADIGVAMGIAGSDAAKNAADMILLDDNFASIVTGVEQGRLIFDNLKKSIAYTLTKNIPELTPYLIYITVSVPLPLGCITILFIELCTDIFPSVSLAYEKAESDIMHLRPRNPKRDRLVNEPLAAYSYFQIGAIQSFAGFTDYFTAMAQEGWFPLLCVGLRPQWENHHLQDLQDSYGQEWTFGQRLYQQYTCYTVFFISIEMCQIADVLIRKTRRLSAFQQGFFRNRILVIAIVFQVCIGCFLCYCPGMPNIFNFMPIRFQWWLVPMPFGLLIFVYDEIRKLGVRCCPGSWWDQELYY
T1 sequence (P18434 whole entry partner): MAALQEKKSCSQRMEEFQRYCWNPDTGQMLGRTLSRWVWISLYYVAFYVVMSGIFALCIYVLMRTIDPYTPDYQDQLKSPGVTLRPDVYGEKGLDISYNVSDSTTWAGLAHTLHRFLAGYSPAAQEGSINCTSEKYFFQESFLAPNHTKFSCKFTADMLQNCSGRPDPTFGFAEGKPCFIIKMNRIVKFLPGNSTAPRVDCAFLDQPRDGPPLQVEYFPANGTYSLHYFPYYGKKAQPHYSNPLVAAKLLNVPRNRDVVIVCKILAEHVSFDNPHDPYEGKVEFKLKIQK

SMILES	IC50 [µM]
CNCc1cn(S(=O)(=O)c2cccc(OC(F)F)c2)c2cc(Nc3ccc(Cl)cc3F)ccc12 [Example 176, N-(4-chloro-2-fluorophenyl)-1-((3-(difluoromethoxy)phenyl)sulfonyl)-3-((methylamino)methyl)-1H-indol-6-amine hydrochloride]	0.37
CNCc1cn(S(=O)(=O)c2cccc(OC(F)F)c2)c2cc(Nc3ccc(Cl)cc3C(F)(F)F)ccc12 [Example 177, N-(4-chloro-2-(trifluoromethyl)phenyl)-1-((3-(difluoromethoxy)phenyl)sulfonyl)-3-((methylamino)methyl)-1H-indol-6-amine hydrochloride]	1.41
CNCc1cn(S(=O)(=O)c2cccc(OC(F)F)c2)c2cc(Nc3ccc(OC)cc3F)ccc12 [Example 178, 1-((3-(difluoromethoxy)phenyl)sulfonyl)-N-(2-fluoro-4-methoxyphenyl)-3-((methylamino)methyl)-1H-indol-6-amine hydrochloride]	0.61
CNCc1cn(S(=O)(=O)c2cccc(OC(F)F)c2)c2cc(Nc3ccc(OC(F)(F)F)cc3C)ccc12 [Example 179, 1-((3-(difluoromethoxy)phenyl)sulfonyl)-N-(2-methyl-4-(trifluoromethoxy)phenyl)-3-((methylamino)methyl)-1H-indol-6-amine hydrochloride]	0.33
CNCc1cn(S(=O)(=O)c2cccc(OC(F)F)c2)c2cc(Nc3ccc(C)c(F)c3F)ccc12 [Example 180, N-(2,3-difluoro-4-methylphenyl)-1-((3-(difluoromethoxy)phenyl)sulfonyl)-3-((methylamino)methyl)-1H-indol-6-amine hydrochloride]	0.27
CNCc1cn(S(=O)(=O)c2cccc(OC(F)F)c2)c2cc(Nc3ccc(C)nc3F)ccc12 [Example 181, 1-((3-(difluoromethoxy)phenyl)sulfonyl)-N-(2-fluoro-6-methylpyridin-3-yl)-3-((methylamino)methyl)-1H-indol-6-amine hydrochloride]	1.28
CNCc1cn(S(=O)(=O)c2cccc(C(F)(F)F)c2)c2cc(Nc3ccc(C)cc3F)ccc12 [Example 183, N-(2-fluoro-4-methylphenyl)-3-((methylamino)methyl)-1-((3-(trifluoromethyl)phenyl)sulfonyl)-1H-indol-6-amine hydrochloride]	0.59
CNCc1cn(S(=O)(=O)c2cccc(C(F)(F)F)c2)c2cc(Nc3ccc(C)cc3Cl)ccc12 [Example 184, N-(2-chloro-4-methylphenyl)-3-((methylamino)methyl)-1-((3-(trifluoromethyl)phenyl)sulfonyl)-1H-indol-6-amine hydrochloride]	0.36
CNCc1cn(S(=O)(=O)c2cccc(C(F)(F)F)c2)c2cc(Nc3ccc(Cl)cc3F)ccc12 [Example 185, N-(4-chloro-2-fluorophenyl)-3-((methylamino)methyl)-1-((3-(trifluoromethyl)phenyl)sulfonyl)-1H-indol-6-amine hydrochloride]	1
CNCc1cn(S(=O)(=O)c2cccc(C(F)(F)F)c2)c2cc(Nc3ccc(Cl)cc3C(F)(F)F)ccc12 [Example 186, N-(4-chloro-2-(trifluoromethyl)phenyl)-3-((methylamino)methyl)-1-((3-(trifluoromethyl)phenyl)sulfonyl)-1H-indol-6-amine hydrochloride]	0.41
CNCc1cn(S(=O)(=O)c2cccc(C(F)(F)F)c2)c2cc(Nc3ccc(C(F)(F)F)cc3Cl)ccc12 [Example 187, N-(2-chloro-4-(trifluoromethyl)phenyl)-3-((methylamino)methyl)-1-((3-(trifluoromethyl)phenyl)sulfonyl)-1H-indol-6-amine hydrochloride]	0.98
CNCc1cn(S(=O)(=O)c2cccc(C(F)(F)F)c2)c2cc(Nc3ccc(OC)cc3F)ccc12 [Example 188, N-(2-fluoro-4-methoxyphenyl)-3-((methylamino)methyl)-1-((3-(trifluoromethyl)phenyl)sulfonyl)-1H-indol-6-amine hydrochloride]	0.4
CNCc1cn(S(=O)(=O)c2cccc(C(F)(F)F)c2)c2cc(Nc3ccc(OC(F)(F)F)cc3C)ccc12 [Example 189, N-(2-methyl-4-(trifluoromethoxy)phenyl)-3-((methylamino)methyl)-1-((3-(trifluoromethyl)phenyl)sulfonyl)-1H-indol-6-amine hydrochloride]	0.65
CNCc1cn(S(=O)(=O)c2cccc(C(F)(F)F)c2)c2cc(Nc3ccc(OC(F)(F)F)cc3OC)ccc12 [Example 190, N-(2-methoxy-4-(trifluoromethoxy)phenyl)-3-((methylamino)methyl)-1-((3-(trifluoromethyl)phenyl)sulfonyl)-1H-indol-6-amine hydrochloride]	0.44
CNCc1cn(S(=O)(=O)c2cccc(C(F)(F)F)c2)c2cc(Nc3ccc(C)c(F)c3F)ccc12 [Example 191, N-(2,3-difluoro-4-methylphenyl)-3-((methylamino)methyl)-1-((3-(trifluoromethyl)phenyl)sulfonyl)-1H-indol-6-amine hydrochloride]	0.07
CNCc1cn(S(=O)(=O)c2cccc(C(F)(F)F)c2)c2cc(Nc3ccc(C)nc3Cl)ccc12 [Example 192, N-(2-chloro-6-methylpyridin-3-yl)-3-((methylamino)methyl)-1-((3-(trifluoromethyl)phenyl)sulfonyl)-1H-indol-6-amine hydrochloride]	0.06
CNCc1cn(S(=O)(=O)c2cccc(C(F)(F)F)c2)c2cc(Nc3ccc(Cl)nc3Cl)ccc12 [Example 193, N-(2,6-dichloropyridin-3-yl)-3-((methylamino)methyl)-1-((3-(trifluoromethyl)phenyl)sulfonyl)-1H-indol-6-amine hydrochloride]	0.58
CNCc1cn(S(=O)(=O)c2cccc(C(F)(F)F)c2)c2cc(Nc3ccc(C(F)(F)F)nc3Cl)ccc12 [Example 195, N-(2-chloro-6-(trifluoromethyl)pyridin-3-yl)-3-((methylamino)methyl)-1-((3-(trifluoromethyl)phenyl)sulfonyl)-1H-indol-6-amine hydrochloride]	1.27
CNCc1cn(S(=O)(=O)c2cccc(OC(F)(F)F)c2)c2cc(Nc3ccc(C)cc3Cl)ccc12 [Example 196, N-(2-chloro-4-methylphenyl)-3-((methylamino)methyl)-1-((3-(trifluoromethoxy)phenyl)sulfonyl)-1H-indol-6-amine hydrochloride]	0.39
CNCc1cn(S(=O)(=O)c2cccc(OC(F)(F)F)c2)c2cc(Nc3ccc(Cl)cc3F)ccc12 [Example 197, N-(4-chloro-2-fluorophenyl)-3-((methylamino)methyl)-1-((3-(trifluoromethoxy)phenyl)sulfonyl)-1H-indol-6-amine hydrochloride]	0.85
CNCc1cn(S(=O)(=O)c2cccc(OC(F)(F)F)c2)c2cc(Nc3ccc(C(F)(F)F)cc3Cl)ccc12 [Example 198, N-(2-chloro-4-(trifluoromethyl)phenyl)-3-((methylamino)methyl)-1-((3-(trifluoromethoxy)phenyl)sulfonyl)-1H-indol-6-amine hydrochloride]	0.16
CNCc1cn(S(=O)(=O)c2cccc(OC(F)(F)F)c2)c2cc(Nc3ccc(OC)cc3F)ccc12 [Example 199, N-(2-fluoro-4-methoxyphenyl)-3-(methylamino)methyl)-1-((3-(trifluoromethoxy)phenyl)sulfonyl)-1H-indol-6-amine hydrochloride]	0.34
CNCc1cn(S(=O)(=O)c2cccc(OC(F)(F)F)c2)c2cc(Nc3ccc(OC(F)(F)F)cc3C)ccc12 [Example 200, N-(2-methyl-4-(trifluoromethoxy)phenyl)-3-((methylamino)methyl)-1-((3-(trifluoromethoxy)phenyl)sulfonyl)-1H-indol-6-amine hydrochloride]	0.9
CNCc1cn(S(=O)(=O)c2cccc(OC(F)(F)F)c2)c2cc(Nc3ccc(OC(F)(F)F)cc3Cl)ccc12 [Example 201, N-(2-chloro-4-(trifluoromethoxy)phenyl)-3-((methylamino)methyl)-1-((3-(trifluoromethoxy)phenyl)sulfonyl)-1H-indol-6-amine hydrochloride]	0.66
CNCc1cn(S(=O)(=O)c2cccc(OC(F)(F)F)c2)c2cc(Nc3ccc(OC(F)(F)F)cc3OC)ccc12 [Example 202, N-(2-methoxy-4-(trifluoromethoxy)phenyl)-3-((methylamino)methyl)-1-((3-(trifluoromethoxy)phenyl)sulfonyl)-1H-indol-6-amine hydrochloride]	0.58
CNCc1cn(S(=O)(=O)c2cccc(OC(F)(F)F)c2)c2cc(Nc3ccc(C)c(F)c3F)ccc12 [Example 203, N-(2,3-difluoro-4-methylphenyl)-3-((methylamino)methyl)-1-((3-(trifluoromethoxy)phenyl)sulfonyl)-1H-indol-6-amine hydrochloride]	0.45
CNCc1cn(S(=O)(=O)c2cccc(OC(F)(F)F)c2)c2cc(Nc3ccc(C)nc3F)ccc12 [Example 204, N-(2-fluoro-6-methylpyridin-3-yl)-3-((methylamino)methyl)-1-((3-(trifluoromethoxy)phenyl)sulfonyl)-1H-indol-6-amine hydrochloride]	0.5
CNCc1cn(S(=O)(=O)c2cccc(OC(F)(F)F)c2)c2cc(Nc3ccc(C)nc3Cl)ccc12 [Example 205, N-(2-chloro-6-methylpyridin-3-yl)-3-((methylamino)methyl)-1-((3-(trifluoromethoxy)phenyl)sulfonyl)-1H-indol-6-amine hydrochloride]	1.75
CNCc1cn(S(=O)(=O)c2ccc(OC(F)(F)F)cc2)c2cc(Nc3ccc(C)cc3F)ccc12 [Example 206, N-(2-fluoro-4-methylphenyl)-3-((methylamino)methyl)-1-((4-(trifluoromethoxy)phenyl)sulfonyl)-1H-indol-6-amine hydrochloride]	2.55

Reference: patent publication US9676714B2, “Sulfonylindole derivatives and method for preparing the same” (Daewoong Pharmaceutical Co., Ltd., priority 2013, dated 2017)
